Consider six compounds from patent US4122184A, “Benzimidazole insecticides” (priority 1977, dated 1978).

Where “and” joins values, the source holds several entries; their conditions need not be identical. Equal values may be shown once.

Assay [1] relates to Alfalfa Weevil Larvae. Description: Field trial, topical application. Type of assay: in vivo. The method, then: The results are read at 24, 48, and 72 hours when applicable. The rating scale is 0 to 9 where 0 = 0-10 percent and 9 = 91-100 percent mortality.
(§1) In a variation of the above test, 1 microliter of a test solution containing a predetermined number of micrograms of benzimidazole was applied directly to larvae or adult insects.
Using the above methods, field trials were carried out against species of 5 orders of insects. The results, which are summarized in the following tables, give the average mortality for the particular insect with a given benzimidazole for each concentration employed. […] These tables contain all results obtained during the summer trials.

In assay [2] the test system is Potato Flea Beetle Adults. Description: Field trial, contact poison test. Type of assay: in vivo. Summed up:
(§2)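 Infested host plants were kept in water-filled bottles with cellucotton around the stem and sprayed with different compound concentrations by atomizer at 10 psi from arm's length. Mortality was read at 24, 48 and 72 h on a 0–9 scale (0 = 0-10%, 9 = 91-100% mortality), averaged per concentration.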

The subject of assay [3] is Alfalfa Weevil Larvae. Description: Field trial, contact poison test. It is filed as in vivo. Summed up: as §2
Assay [4] concerns Asparagus Beetles Adults. Briefly: Field trial, contact poison test. It is filed as in vivo. The gist of the method:
as §2

For a further assay, the system named is Tussock Moth. Briefly: Field trial (first summer), stomach. Conditions: 750 ppm. Type of assay: in vivo.
In another assay the test system is Zebra Caterpillar. Description: Field trial (first summer), stomach. It is filed as in vivo. Conditions: 500 ppm.
Assay [5] relates to Unidentified Green Leafhopper. Description: Field trial, stomach poison test. Type of assay: in vivo. The arrangement: key: mortality rating on a 0 to 9 scale. Summed up: (§3)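 Spray (10 psi) or dip leaves from infested plants in test solution; air-dry; put in Petri dish; add 5 or 10 insects; score mortality 0–9 at 24/48/72 h. 1–2 reps, usually 2–3 rates.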
The test system of assay [6] is Tarnished Plant Bug Adults. Briefly: Field trial, stomach poison test. Type of assay: in vivo. More on the design: key: mortality rating on a 0 to 9 scale. Summed up:
as §3

The subject of the next assay is Meadow Grasshopper. Description: Field trial (first summer), contact. Type of assay: in vivo. Conditions: 125 ppm.
In another assay the test system is Differential Grasshopper. Description: Field trial (first summer), contact. As to conditions: 125 ppm. It is filed as in vivo.
For another assay, the system named is Aphids - Tulip Tree. Description: Field trial, stomach poison test. It is filed as in vivo. The gist of the method:
as §3

For assay [7], the system named is Potato Flea Beetle Adults. Briefly: Field trial, stomach poison test. Type of assay: in vivo. The gist of the method: as §3
Assay [8] deals with Alfalfa Weevil Larvae. Briefly: Field trial, stomach poison test. Type of assay: in vivo. Summed up:
as §3

In assay [9] the test system is Asparagus Beetles Adults. Description: Field trial, stomach poison test. Type of assay: in vivo. Summed up: as §3
The test system of another assay is Mexican Bean Beetle. Briefly: Field trial (first summer), topical. Conditions: .25 μg/μl. Type of assay: in vivo, Epilachna varivestis. The method, then: as §1
During the previous summer similar field trials were conducted employing the same tests as heretofore but with some additional species of insects not included in the later tests. The results listed below are for tests in which an insect mortality was established by a given application route and at a given concentration in a particular test. The same 0 - 9 scoring system is used as is the designation of compounds by alphabetical symbols.

The test system of assay [10] is Two-Spotted Spider Mite (2-SSM). Description: Miticide test, acute mortality, foliar spray. It is filed as in vivo, Tetranychus urticae. The protocol:
Each 5 mg. sample of technical compound preweighed at Greenfield was dissolved in 2.5 ml. of acetone and diluted with 247.5 ml. of water containing a combination of […]
The treated cuttings were stored in the greenhouse for 24 hours before evaluation under a binocular disecting microscope in the laboratory. In evaluating the results of the miticide test, each treated cutting was removed from the test tube, observed for live and dead mites at 14 × magnification, and returned immediately to the test tube. A scale of 0-9 was used as before.
The test employing two-spotted spider mites was conducted in similar fashion except that the mites were maintained on squash seedlings or squash cuttings.

The test system of another assay is Mosquito Larvae. Briefly: Mosquito larvae test (dip test). It is filed as in vivo, Aedes aegypti. As to conditions: 48 h. The protocol:
Aedes aegypti larvae 5 days old are allowed to feed on fresh food for at least 3 hours previous to being placed on test. Larvae are then removed from the rearing pans by pouring on a 20 mesh screen, washing with deionized water, and pooling in a 6-inch white enameled sauce pan.
Twenty larvae are placed in a 1 oz. paper cup containing 25 ml. of deionized water.
Test chemicals are dissolved in a suitable solvent and pipetted under the surface of 225 ml. of deionized water in one pint wide-mouthed Mason jar test containers and stirred. A cup containing 20 larvae in 25 ml. of water is then added. […]
Results are determined 48 hours later by counting the dead and moribund larvae. […] Moribund larvae are those that are capable of limited, or poorly coordinated, locomotion in a sluggish manner.
Live larvae respond normally and actively.

`O=[N+]([O-])c1cc(C(F)(F)F)cc2nc(C(F)(F)F)[nH]c12` [A, 2,6-bis(trifluoromethyl)-4-nitrobenzimidazole]: the average mortality rating in the assay with Alfalfa Weevil Larvae [1] (0.03 μg/μl) was 2; with Alfalfa Weevil Larvae [1] (0.07 μg/μl), 2; in the assay with Alfalfa Weevil Larvae [1] (0.1 μg/μl), 1; in assay [2] (10 ppm), 9 (91-100 percent mortality); in [2] (25 ppm), 9 (91-100 percent mortality); in assay [2] (50 ppm) it was 8. Moreover, the average mortality rating in assay [2] (100 ppm) is reported as 8; in [2] (250 ppm), 9 (91-100 percent mortality); with Alfalfa Weevil Larvae [3] (500 ppm) it was 3; with Alfalfa Weevil Larvae [3] (750 ppm) it was 3; in the assay on Alfalfa Weevil Larvae [3] (1000 ppm) it was 5; in the assay on Asparagus Beetles Adults [4] (10 ppm), 7. Moreover, the average mortality rating in the assay with Asparagus Beetles Adults [4] (25 ppm) is reported as 7; with Asparagus Beetles Adults [4] (50 ppm), 8; in assay [5] (10 ppm), 4; in assay [5] (25 ppm), 2; in assay [5] (50 ppm), 6; in assay [6] (10 ppm) it was 3. The average mortality rating in assay [6] (25 ppm) was 1; in assay [6] (50 ppm), 2; in the assay on Aphids - Tulip Tree (25 ppm), 8; with Aphids - Tulip Tree (50 ppm), 5; in the assay with Aphids - Tulip Tree (100 ppm), 8; in [7] (10 ppm) it was 9 (91-100 percent mortality). For the same compound, the average mortality rating is 6 in [7] (25 ppm); 9 (91-100 percent mortality) in [7] (50 ppm); 9 (91-100 percent mortality) in [7] (100 ppm); 7 with Alfalfa Weevil Larvae [8] (125 ppm); 7 with Alfalfa Weevil Larvae [8] (250 ppm); 7 with Alfalfa Weevil Larvae [8] (500 ppm). Moreover, the average mortality rating was 0 (0-10 percent) in the assay on Asparagus Beetles Adults [9] (5 ppm), 3 in the assay with Asparagus Beetles Adults [9] (10 ppm) and 9 (91-100 percent mortality) in the assay on Asparagus Beetles Adults [9] (25 ppm). Further, the insect mortality rating in the assay with Tussock Moth is given as 9 (91-100 percent mortality); in the assay on Zebra Caterpillar, 7; in the assay on Meadow Grasshopper it was 9 (91-100 percent mortality); with Differential Grasshopper it was 9 (91-100 percent mortality); in the assay with Mexican Bean Beetle, 9 (91-100 percent mortality).

For the compound `CC(C)OC(=O)n1c(C(F)(F)F)nc2c([N+](=O)[O-])cc(C(F)(F)F)cc21` [I, isopropyl 2,6-bis(trifluoromethyl)-4-nitro-1-benzimidazolecarboxylate], the acute mortality rating in [10] (6.25 ppm) is 3; in assay [10] (12.5 ppm), 2; in [10] (25 ppm), 8; in assay [10] (50 ppm) it was 8; in assay [10] (100 ppm), 8. The average mortality rating is recorded as 1 in the assay with Alfalfa Weevil Larvae [1] (0.03 μg/μl); 1 in the assay with Alfalfa Weevil Larvae [1] (0.07 μg/μl); 3 in the assay on Alfalfa Weevil Larvae [1] (0.1 μg/μl); 9 (91-100 percent mortality) in assay [2] (10 ppm); 9 (91-100 percent mortality) in assay [2] (25 ppm); 9 (91-100 percent mortality) in assay [2] (50 ppm). For the same compound, the average mortality rating is 9 (91-100 percent mortality) in [2] (100 ppm); 9 (91-100 percent mortality) in assay [2] (250 ppm); 1 in the assay with Alfalfa Weevil Larvae [3] (500 ppm); 2 in the assay with Alfalfa Weevil Larvae [3] (750 ppm); 1 in the assay with Alfalfa Weevil Larvae [3] (1000 ppm); 2 in assay [5] (10 ppm). The average mortality rating in assay [5] (25 ppm) is listed as 6; in assay [5] (50 ppm), 7; in [6] (10 ppm) it was 3; in assay [6] (25 ppm) it was 4; in assay [6] (50 ppm) it was 2; in the assay with Aphids - Tulip Tree (25 ppm), 5. Moreover, the average mortality rating with Aphids - Tulip Tree (50 ppm) was 5; with Aphids - Tulip Tree (100 ppm), 5; in [7] (10 ppm), 6; in assay [7] (25 ppm), 8; in [7] (50 ppm) it was 8; in [7] (100 ppm), 9 (91-100 percent mortality). The average mortality rating in the assay with Alfalfa Weevil Larvae [8] (125 ppm) is recorded as 8; with Alfalfa Weevil Larvae [8] (250 ppm), 4; in the assay with Alfalfa Weevil Larvae [8] (500 ppm), 6.

As for `O=[N+]([O-])c1cc(C(F)(F)F)cc2[nH]c(C(F)(F)Cl)nc12` [L, 2-chlorodifluoromethyl-4-nitro-6-trifluoromethylbenzimidazole], the average mortality rating in [6] (10 ppm) is listed as 0 (0-10 percent); in assay [6] (25 ppm), 4; in assay [6] (50 ppm) it was 5; in the assay on Aphids - Tulip Tree (25 ppm) it was 1; in the assay on Aphids - Tulip Tree (50 ppm) it was 1; with Aphids - Tulip Tree (100 ppm), 5.

As to “mixture of benzyl 2,6-bis(trifluoromethyl)-4-nitro-1-benzimidazolecarboxylate and benzyl 2,5-bis(trifluoromethyl)-7-nitro-1-benzimidazolecarboxylate”, the average mortality rating turned out to be 2 in the assay on Alfalfa Weevil Larvae [1] (0.03 μg/μl); 1 with Alfalfa Weevil Larvae [1] (0.07 μg/μl); 4 with Alfalfa Weevil Larvae [1] (0.1 μg/μl); 4 in the assay with Alfalfa Weevil Larvae [3] (500 ppm); 4 in the assay with Alfalfa Weevil Larvae [3] (750 ppm); 6 with Alfalfa Weevil Larvae [3] (1000 ppm). The results for the average mortality rating in the assay with Alfalfa Weevil Larvae [8] (125 ppm), in the assay on Alfalfa Weevil Larvae [8] (250 ppm) and in the assay on Alfalfa Weevil Larvae [8] (500 ppm) were 3, 5 and 6, respectively.

Regarding “mixture of methyl 2,6-bis(trifluoromethyl)-4-nitro-1-benzimidazolecarboxylate and methyl 2,5-bis(trifluoromethyl)-7-nitro-1-benzimidazolecarboxylate”, the average mortality rating in the assay on Mosquito Larvae (0.025 ppm) is listed as 0 (0-10%); in the assay on Mosquito Larvae (0.05 ppm) it was 0 (0-10%); in the assay with Mosquito Larvae (0.1 ppm), 4 (45-50%); in the assay with Alfalfa Weevil Larvae [1] (0.03 μg/μl) it was 2; with Alfalfa Weevil Larvae [1] (0.07 μg/μl), 1; in the assay on Alfalfa Weevil Larvae [1] (0.1 μg/μl), 4. The average mortality rating is 2 in the assay on Alfalfa Weevil Larvae [3] (500 ppm); 6 in the assay on Alfalfa Weevil Larvae [3] (750 ppm); 7 in the assay on Alfalfa Weevil Larvae [3] (1000 ppm); 3 in the assay on Asparagus Beetles Adults [4] (10 ppm); 8 in the assay with Asparagus Beetles Adults [4] (25 ppm); 9 (91-100 percent mortality) in the assay on Asparagus Beetles Adults [4] (50 ppm). Moreover, the average mortality rating in [5] (10 ppm) is 5; in assay [5] (25 ppm) it was 4; in [5] (50 ppm), 6; in [6] (25 ppm) it was 3; in assay [6] (50 ppm), 7 and 4; with Alfalfa Weevil Larvae [8] (125 ppm), 7. In addition, the average mortality rating was 6 in the assay with Alfalfa Weevil Larvae [8] (250 ppm); 3 in the assay on Alfalfa Weevil Larvae [8] (500 ppm); 5 in the assay with Asparagus Beetles Adults [9] (5 ppm); 5 in the assay on Asparagus Beetles Adults [9] (10 ppm); 9 (91-100 percent mortality) in the assay on Asparagus Beetles Adults [9] (25 ppm).

“mixture of phenyl 2,6-bis(trifluoromethyl)-4-nitro-1-benzimidazolecarboxylate and phenyl 2,5-bis(trifluoromethyl)-1-benzimidazolecarboxylate”: the values for the average mortality rating in assay [5] (10 ppm), in assay [5] (25 ppm) and in assay [5] (50 ppm) were 0 (0-10 percent), 1 and 9 (91-100 percent mortality), respectively.
